Structures are written as SMILES.

One data set concerns the target T1, human GLP-1 receptor (Homo sapiens, UniProt P43220).
T1 construct: expressed in transfected cells
The data set can be described thus: Stimulation of human GLP1 receptor stable transgenic cell line CHO-K1/GLP-1R/CRE-luc to produce cAMP (HTRF). The class given is cell-based. As to conditions: cAMP production, CHO-K1/GLP-1R/CRE-luc cells, 30 minutes incubation, 0.5 mM IBMX. From the text:
I. Determination of the Ability of the Compound of the Present Invention to Stimulate Human GLP1 Receptor Stable Transgenic Cell Lines to Produce cAMP
The purpose of this test example is to determine the ability of the compound to activate the human GLP-1 receptor on the cell surface. The EC50 that stimulates […] after agonism characterizes the compound's ability to activate the human GLP-1 receptor.
The frozen human GLP1 receptor stable transgenic cell line CHO-K1/GLP-1R/CRE-luc was taken from the liquid nitrogen tank, quickly thawed in a 37° C. water bath, resuspended with DMEM/F12 medium, centrifuged, and washed once. The cells were resuspended with the experimental buffer, namely DMEM/F12 medium containing 0.1% casein, and the experimental buffer was used to adjust the cell density. The cells were spread on spread on a 384-well plate at a density of 2500 cells/5 μL/well, and then to each well was added 2.5 μL of buffer-prepared IBMX working solution with a final concentration of IBMX of 0.5 mM, and 2.5 μL of the compound sample with gradient dilution (starting at 1000 nM, 3-fold dilution, 11 concentrations). The plate was centrifuged at 1000 rpm for 1 minute, shaken for 30 seconds to mix well, and incubated at room temperature for 30 minutes. Detection was performed using the Cisbio cAMP—Gs Dynamic kit. cAMP-d2 and Anti-cAMP-Eu^3+-Cryptate were diluted 20-fold with cAMP Lysis & Detection Buffer, respectively, and mixed well. To each well was added 5 μL diluted cAMP-d2 solution, and then added 5 μL diluted Anti-cAMP-Eu3^+-Cryptate solution. The plate was shaken for 30 seconds, and incubated at room temperature for 1 hour in the dark. The signal reading of HTRF was performed using the Biotek Synergy H1 microplate reader with an excitation wavelength of 320 nm and emission wavelengths of 620 nm and 665 nm.
The signal ratio (665 nm/620 nm*10,000) was calculated, and the signal ratio and sample concentration were nonlinearly fitted using a four-parameter equation in GraphPad Prism 6 to obtain the EC50 value.
On the technique in general: Time-resolved FRET reads energy transfer from a long-lived donor to a nearby acceptor.

Data set [1] can be described thus: Pharmacokinetic assay of SD rats. The class given is in vivo. As to conditions: Sprague-Dawley, rat, po; male SD rats, plasma, dose 50 mg/kg (b1219 prints 5 mg/kg). As for the experimental part:
SD rats were used as test animals. The pharmacokinetic behavior of the following example compounds was studied in the plasma of rats administered orally at a dose of 50 mg/kg.
Vehicle formula: 0.5% CMC-Na (1% Tween 80);
Three SD rats per group, male. […]
Before and after administration, 0.2 mL of blood was collected from the jugular vein at 0, 0.25, 0.5, 1, 2, 4, 6, 8 and 24 hours, placed in EDTA-K2 tubes, centrifuged at 6000 rpm at 4° C. for 6 min to separate the plasma. The plasma samples were stored at −80° C. The […] was fed 4 hours after the administration.
• 1) 160 μL of acetonitrile was added to 40 μL of the plasma sample for precipitation, and then the mixture was centrifuged at 3500×g for 5-20 min. • 2) After the above process, 100 μL of the supernatant was taken to analyze the concentration of the test compound by LC/MS/MS.
• Liquid chromatography condition: Shimadzu LC-20AD pump Mass spectrometry condition: AB Sciex API 4000 mass spectrometer Chromatographic column: phenomenex Gemiu 5 μm C18 50×4.6 mm • Mobile phase: Eluent A was 0.1% formic acid in water, and Eluent B was methanol • Flow rate: 1.0 mL/min • Elution time: 0-4.0 minutes, the eluent is as follows:
The main pharmacokinetic parameters were calculated using WinNonlin 8.2.

Data set [2] relates to GLP-1R humanized C57BL/6 mice fed with high-fat diet. Description: Long-term administration: body weight and ingestion of GLP-1R humanized mice fed with high-fat diet. The format is in vivo. As to conditions: HFD mice; for Weight (g)-D0 Mean: Day 0 (day of first administration, baseline), 10 mg/kg oral once a day; for Body weight change(%)-D10 Mean: Day 10 versus Day 0, 10 mg/kg oral once a day. From the text:
The purpose of this test is to evaluate the effects of long-term administration of the compound on the body weight and ingestion of GLP-1R humanized C57BL/6 mice fed with high-fat diet.
C57BL/6_hGLP-1R, male, 5-8 weeks; 60% high-fat diet (HFD); Ultra-clean workbench; Electronic balance.
3.1 On the day of feeding with high-fat diet, C57BL/6 mice were randomly divided into two groups according to their weight. The first group was Blank, with 7 mice fed with normal control diet, while the remaining animals were in the modeling group, fed with high-fat diet, and continued until the end of the experiment.
3.2 At the 8th week of HFD feeding, the modeling group animals were randomly divided with 7 animals per group according to their weight. The first group was the Vehicle group (Vehicle: 0.5% CMC Na+1% Tween 80), which was given vehicle; The remaining group was the administration group; Administration regimen: Oral administration of the corresponding compound, administration cycle was 14 days, once a day for 14 days, with an administration dose of 10 mg/kg and an administration volume of 10 mL/kg. The Blank group continued to be fed with normal diet without any administration operation.
3.3 The day of administration was defined as Day 0.
3.4 During each administration, animals were weighed and data was recorded. Oral administration is performed according to body weight, with an administration volume of 10 mL/kg.
3.5 Starting from Day 0 of the experiment, the food intake of each group of mice was measured once every three days. Specifically, the feed was changed after each weighing and administration, and the added and remaining amounts were recorded.
3.6 On the end day of Day 14, all mice were euthanized sequentially according to grouping order, and the livers were dissected and weighed.
The weight and weight change rate of mice after administration were summarize and statistically analyzed. Weight change rate calculation: (BWt−BW0)/BW0×100%. BWt represents the weight of the mice on Day t of the experiment, and BW0 represents the weight of the mice on Day 0 of the experiment.
Calculation of food intake: (added amount (g)−remaining amount (g))/number of animals per cage, cumulative food intake is the sum of daily food intake of each animal during the administration period.
Experimental data were analyzed using GraphPad Prism software. The t-test method was used for comparison between the two groups. The one-way ANOVA method was used for comparisons between three or more groups.

T1 sequence (P43220 24-463): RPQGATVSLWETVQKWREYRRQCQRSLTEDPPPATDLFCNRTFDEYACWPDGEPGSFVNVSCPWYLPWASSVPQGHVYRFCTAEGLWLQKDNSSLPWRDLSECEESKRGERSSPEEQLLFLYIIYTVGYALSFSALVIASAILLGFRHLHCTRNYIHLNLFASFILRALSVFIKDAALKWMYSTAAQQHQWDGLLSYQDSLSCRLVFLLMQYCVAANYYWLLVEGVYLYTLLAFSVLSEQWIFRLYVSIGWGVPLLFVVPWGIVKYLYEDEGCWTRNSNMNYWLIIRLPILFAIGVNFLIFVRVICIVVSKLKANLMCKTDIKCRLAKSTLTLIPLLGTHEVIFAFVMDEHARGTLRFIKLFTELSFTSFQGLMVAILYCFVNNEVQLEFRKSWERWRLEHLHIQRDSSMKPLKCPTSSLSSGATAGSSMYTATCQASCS

The term EC50 denotes the concentration giving half of the maximal effect. On to `O=C(O)c1ccc2nc(CN3CCC(c4cccc5c4OC(c4ccc(Cl)cc4F)C=C5F)CC3)n(C[C@@H]3CCO3)c2c1` (stereo partly drawn) [Example 1, 2-((4-(2-(4-Chloro-2-fluorophenyl)-4-fluoro-2H-chromen-8-yl)piperidin-1-yl)methyl)-1-(((S)-oxetan-2-yl)methyl)-1H-benzo[d]imidazole-6-carboxylic acid], for which, on human GLP-1 receptor, the concentration giving a half-maximal response (EC50) is 130 pM.
Consider `[2H]C([2H])([2H])Oc1cc(Cl)ccc1[C@H]1C=C(F)c2cccc(C3CCN(Cc4nc5ccc(C(=O)O)cc5n4C[C@@H]4CCO4)CC3)c2O1` [Example 24-A, 2-((4-((R)-2-(4-chloro-2-(methoxy-d3)phenyl)-4-fluoro-2H-chromen-8-yl)piperidin-1-yl)methyl)-1-(((S)-oxetan-2-yl)methyl)-1H-benzo[d]imidazole-6-carboxylic acid], for which, on human GLP-1 receptor, the EC50 was 50 pM.
Broadly, the AUC(0-inf) is total exposure, with the tail of the curve extrapolated. Low readings indicate low exposure, high ones high exposure. What is called AUC(0-t) is the area under the concentration-time curve up to a stated or last time point. A low value points to low exposure. As a reminder, the Cmax is the peak of the concentration-time curve. What is called Tmax is the time from dosing to the highest level. A word on the half-life: it is the time in which the quantity being followed falls by half. Regarding `N#Cc1ccc([C@H]2C=Cc3cccc(C4CCN(Cc5nc6ccc(C(=O)O)cc6n5C[C@@H]5CCO5)CC4)c3O2)c(F)c1` [Example 52, 2-((4-((R)-2-(4-Cyano-2-fluorophenyl)-2H-chromen-8-yl)piperidin-1-yl)methyl)-1-(((S)-oxetan-2-yl)methyl)-1H-benzo[d]imidazole-6-carboxylic acid], on human GLP-1 receptor, the EC50 came to 50 pM. Moreover, in data set [1], the total exposure AUC(0-inf) was 12600 ng·h/mL, the AUC(0-t) is 12600 ng·h/mL, the Cmax worked out at 9400 ng/mL and the Tmax was found to be 1 h. This compound also showed a half-life in data set [1] of 1.6 h.
As to `[2H]C([2H])([2H])Oc1cc(Cl)ccc1[C@H]1C=C(F)c2cccc(C3CCN(Cc4nc5ccc(C(=O)O)nc5n4C[C@@H]4CCO4)CC3)c2O1` [Example 23-A, 2-((4-((R)-2-(4-chloro-2-(methoxy-d3)phenyl)-4-fluoro-2H-chromen-8-yl)piperidin-1-yl)methyl)-3-(((S)-oxetan-2-yl)methyl)-3H-imidazolo[4,5-b]pyridine-5-carboxylic acid], the EC50 on human GLP-1 receptor stood at 70 pM.
The same measure, in the same setting: the value for `O=C(O)c1ccc2nc(CN3CCC(c4cccc5c4OC(c4ccc(Cl)cc4F)C=C5F)CC3)n(CC3(CF)CC3)c2c1` (stereo not drawn) [Example 3, 2-((4-(2-(4-Chloro-2-fluorophenyl)-4-fluoro-2H-chromen-8-yl)piperidin-1-yl)methyl)-1-((1-(fluoromethyl)cyclopropyl)methyl)-1H-benzo[d]imidazole-6-carboxylic acid] was 60 pM.
In the case of `[2H][C@]1(c2ccc(Cl)cc2F)C=C(F)c2cccc(C3CCN(Cc4nc5ccc(C(=O)O)nc5n4C[C@@H]4CCO4)CC3)c2O1` [Example 40, 2-((4-((R)-2-(4-Chloro-2-fluorophenyl)-4-fluoro-2H-chromen-8-yl-2-d)piperidin-1-yl)methyl)-3-(((S)-oxetan-2-yl)methyl)-3H-imidazolo[4,5-b]pyridine-5-carboxylic acid], the concentration for a half-maximal effect (EC50) on human GLP-1 receptor was 100 pM. Also, in data set [2] (the 3rd table), the “Weight (g)-D0 Mean” value is reported as 28.40 g and the “Body weight change(%)-D10 Mean” value was −8.49%. Further, the “Weight (g)-D10 Mean” value in data set [2] (Day 10, 10 mg/kg oral once a day, the 3rd table) was found to be 26.01 g. In addition, in data set [1], the AUC(0-inf) is 10800 ng·h/mL, the area under the curve AUC(0-t) amounted to 10300 ng·h/mL, the peak level (Cmax) was 2300 ng/mL and the time to peak (Tmax) was determined as 1 h. The compound further had a half-life in data set [1] of 2 h.
In the case of `O=C(O)c1ccc2nc(CN3CCC(c4cccc5c4O[C@@H](c4ccc(Cl)cc4F)C=C5F)CC3)n(C[C@@H]3CCO3)c2n1` [Example 2-A, 2-((4-((R)-2-(4-chloro-2-fluorophenyl)-4-fluoro-2H-chroman-8-yl)piperidin-1-yl)methyl)-3-(((S)-oxetan-2-yl)methyl)-3H-imidazolo[4,5-b]pyridine-5-carboxylic acid], the concentration for a half-maximal effect (EC50) at human GLP-1 receptor came to 70 pM. Further, in data set [1], the AUC(0-inf) is 35800 ng·h/mL, the exposure AUC(0-t) turned out to be 35800 ng·h/mL, the highest level (Cmax) was 7160 ng/mL and the Tmax amounted to 2 h. For the same compound, in data set [1], the half-life is 3.1 h.
Regarding `O=C(O)c1ccc2nc(CN3CCC(c4cccc5c4O[C@@H](c4ccc(Cl)cc4F)C=C5)CC3)n(C[C@@H]3CCO3)c2c1` [Example 53], on human GLP-1 receptor, the 50% effective concentration (EC50) turned out to be 60 pM. In data set [2] (the 4th table), the “Weight (g)-D0 Mean” value is listed as 28.34 g and the “Body weight change(%)-D10 Mean” value is recorded as −9.53%. In data set [2] (Day 10, 10 mg/kg oral once a day, the 4th table), the “Eeight (g)-D10 Mean” value is given as 25.65 g. In addition, in data set [1], the total exposure AUC(0-inf) is 21600 ng·h/mL, the area under the curve AUC(0-t) amounted to 21500 ng·h/mL, the Cmax came to 7980 ng/mL and the time of peak concentration (Tmax) amounted to 0.5 h. In data set [1], this compound had a half-life of 2 h.
`[2H]C([2H])([2H])Oc1cc(Cl)ccc1[C@@]1([2H])C=C(F)c2cccc(C3CCN(Cc4nc5ccc(C(=O)O)cc5n4C[C@@H]4CCO4)CC3)c2O1` [Example 49, 2-((4-((R)-2-(4-Chloro-2-(methoxy-d3)phenyl)-4-fluoro-2H-chromen-8-yl-2-d)piperidin-1-yl)methyl)-1-(((S)-oxetan-2-yl)methyl)-1H-benzo[d]imidazole-6-carboxylic acid]: on human GLP-1 receptor, the concentration giving a half-maximal response (EC50) came out at 80 pM.
Still for that read-out and setting: the value for `[2H][C@]1(c2ccc(Cl)cc2F)C=Cc2cccc(C3CCN(Cc4nc5ccc(C(=O)O)cc5n4C[C@@H]4CCO4)CC3)c2O1` [Example 47] was 80 pM.
